Patent US10568877B2, “Preparation and anti-HSV-1 application of quinolinone derivatives” (OCEAN UNIVERSITY OF CHINA, priority 2015, dated 2020)

test system: HSV-1; assay: Antiviral activity against HSV-1 by cytopathic (CPE) assay in Hep-2 cells; assay type: cell-based, Herpes Simplex Virus 1; conditions: Human alphaherpesvirus 1; anti-HSV-1 activity, CPE assay, Hep-2 cells, neutral red OD 540 nm, Reed-Muench
Experimental: The antiviral activities against HSV-1 were evaluated by cytopathic (CPE) assay. Hep-2 monolayer cells were treated with trypsin enzyme and transferred to 96-well plates. HSV-1 viruses were seeded with Hep-2 cells in 96-well plates, with 2% RPMI-1640 medium, and incubated under 37° C., 5% CO2. After more than 90% lesions, the virus-infected cells were repeatedly freezed and thawed for 3 times, centrifuged, and stored in the refrigerator at −80° C. Each tested compound was dissolved in 10 μL DMSO to make a homogeneous solution and the solution was diluted 10 times by one-to-one dilution with 2% RPMI-1640 medium. The solution gradient was added to the infected cells incubated in 96-well plates. Ribavirin was used as positive control. Normal cells alone and infected cells alone were used as control. All samples were incubated under 37° C., 5% CO2. Examine pathological changes once every hour, for 24 h. […] OD value was determined at 540 nm. IC50 values of the tested compounds were calculated by Reed-Muench methods.

IC50 [µM]	Compound
50 to 100	COc1ccc([C@]2(O)c3c(O)cccc3NC(=O)[C@H]2O)cc1 [Compound 15]
50 to 100	NC(=O)c1ncn([C@@H]2O[C@H](CO)[C@@H](O)[C@H]2O)n1 [Ribavirin, reference compound]
25 to 50	COc1ccc(-c2c(O)c(=O)[nH]c3ccccc23)cc1 [Compound 29]
2 to 25	COc1ccc([C@@]2(O)c3c(ccc(/C=C/[C@@]4(C)OC(C)(C)[C@@H]5C[C@@H]54)c3O)NC(=O)[C@@H]2OC)cc1 [Compound 5]
50 to 100	COc1ccc([C@]2(O)c3ccccc3NC(=O)[C@H]2O)cc1 [Compound 16]
0.05 to 2	CO[C@@H]1C(=O)Nc2ccc(/C=C/[C@@]3(C)CCC(=O)[C@@H](C)C3)c(O)c2[C@@]1(O)c1ccccc1 [Compound 4]
2 to 25	COc1ccc([C@@]2(O)c3c(ccc(/C=C/[C@@]4(C)CCC(C)(C)CO4)c3O)NC(=O)[C@@H]2OC)cc1 [Compound 11]
2 to 25	COc1ccc([C@@]2(O)c3c(ccc(/C=C/[C@]4(C)CC[C@@H](O)C(C)(C)O4)c3O)NC(=O)[C@@H]2OC)cc1 [Compound 7]
25 to 50	O=c1[nH]c2ccccc2c(-c2ccccc2)c1O [Compound 30]
25 to 50	C=C(C)/C=C/c1ccc2c(c1O)[C@](O)(c1ccc(OC)cc1)[C@@H](OC)C(=O)N2 [Compound 19]
0.05 to 2	COc1ccc([C@@]2(O)c3c(ccc(/C=C/C4(C)CCC(C)(C)C(O)O4)c3O)NC(=O)[C@@H]2OC)cc1 (some centres unmarked) [Compound 10]
2 to 25	COc1ccc([C@@]2(O)c3c(ccc(/C=C/[C@@]4(C)OC(C)(C)[C@H]5C[C@H]54)c3O)NC(=O)[C@@H]2OC)cc1 [Compound 6]
25 to 50	COc1ccc([C@@]2(O)c3c(ccc(/C=C/C(C)=O)c3O)NC(=O)[C@@H]2OC)cc1 [Compound 18]
0.05 to 2	C=C(C)[C@H]1CC[C@](C)(/C=C/c2ccc3c(c2O)[C@@](O)(c2ccccc2)[C@H](OC)C(=O)N3)O1 [Compound 1]
25 to 50	COc1ccc([C@@]2(O)c3c(ccc(CC=C(C)C)c3O)NC(=O)[C@@H]2OC)cc1 [Compound 17]
0.05 to 2	CO[C@@H]1C(=O)Nc2ccc(/C=C/[C@]3(C)CCC(=O)[C@@H](C)C3)c(O)c2[C@@]1(O)c1ccccc1 [Compound 2a]
0.05 to 2	CO[C@@H]1C(=O)Nc2ccc(/C=C/[C@]3(C)CC[C@@H](O)[C@@H](C)C3)c(O)c2[C@@]1(O)c1ccccc1 [Compound 3]

same assay, conditions: TC50 = median toxic concentration for Hep-2 monolayer cells; IC50 against HSV-1

Compound	TI = TC50/IC50
NC(=O)c1ncn([C@@H]2O[C@H](CO)[C@@H](O)[C@H]2O)n1 [Ribavirin, reference compound]	++++ (“++++” means TI > 500)
COc1ccc([C@@]2(O)c3c(ccc(/C=C/[C@]4(C)CCC(C)(C)CO4)c3O)NC(=O)[C@@H]2OC)cc1 [Compound 12]	++ (“++” means TI was between 20 and 100)

same assay, conditions: anti-HSV-1 activity, CPE assay, Hep-2 cells, neutral red OD 540 nm, Reed-Muench

IC50 [µM]	Compound
2 to 25	COc1ccc([C@@]2(O)c3c(ccc(/C=C/[C@]4(C)CCC(C)(C)CO4)c3O)NC(=O)[C@@H]2OC)cc1 [Compound 12]
